According to patent EP0348399B1, “SORBIN AND PEPTIDE DERIVATIVES WHICH INCREASE ABORPTION BY THE MUCOUS MEMBRANES” (INSTITUT NATIONAL DE LA SANTE ET DE LA RECHERCHE MEDICALE …, priority 1988, dated 1992):

Tests used:
[1] = Arterial blood pressure measured by carotid catheterisation; assay type: in vivo; settings: measured by catheterisation of the carotid, result in words
[2] = test system: rat; assay: Water and electrolyte movements in ligated intestinal loops of the anaesthetised rat, peptides given by intravenous infusion; assay type: in vivo; settings: rat duodenal loop, i.v. infusion, dose 50 pmol/100g, 1 h contact; controls (TEMOINS) = 0; (-) absorption, (+) secretion; mean, groups of 8 or more
Description: Chez le rat privé d'aliment depuis 45 heures mais recevant de l'eau à volonté, une anesthésie est assurée par le pentobarbital sodique, un cathéter est placé sur une jugulaire, trois anses duodénale, jéjunale et iléale sont constituées entre deux ligatures. Un ml de solution test contenant 70 mM de NaCl, 5,2 mM de KCl, […] de CaCl₂, 10 mM de CO₃Na ET 136 mM de mannitol est instillé dans chaque anse, le PEG 4000 marqué au ³H est utilisé comme marqueur non absorbable, le ²²Na ou le ³⁶Cl comme marqueurs des flux bidirectionnels de sodium ou de chlore. La sorbine ou les peptides de synthèse sont administrés par voie veineuse dans du NaCl à 0,9%, à un débit de 3 ml/h. Après une heure de contact, le liquide restant dans la lumière de l'anse est collecté, le volume et les concentrations de Na, Ca, K, Cl et HCO₃ ainsi que la radioactivité liée au tritium, au chlore ou au sodium sont mesurés.
L'absorption est indiquée par un signe (-), la sécrétion par un signe (+). les résultats concernent des groupes de 8 animaux ou plus M ± SEM ^. P<0.05 ^..P<0.01

| Compound | tension artérielle [1] | Cl [2] | Eau [2] | Na [2] |
| --- | --- | --- | --- | --- |
| CC[C@H](C)[C@H](NC(=O)[C@H](Cc1ccc(O)cc1)NC(=O)[C@@H](NC(=O)[C@H](CCCNC(=N)N)NC(=O)[C@@H](N)CC(=O)O)C(C)C)C(=O)N[C@@H](Cc1cnc[nH]1)C(=O)N1CCC[C@H]1C(=O)N[C@@H](Cc1ccccc1)C(=O)O [ANGIOTENSINE II, angiotensine II] | augmentation de la tension artérielle |  |  |  |
| HEPTAPEPTIDE |  | -36,1 µeq | -0,20 ml | -30,7 µeq |
